Earlier results, collected in article PMC8352932, “Targeted activity of the small molecule kinase inhibitor Pz-1 towards RET and TRK kinases” (Scientific Reports, 2021).
Values joined by “and” are separate entries in the source; they are usually repeats but may differ in a detail not shown here. Identical values can stand only once.

How the values were obtained:
Settings in all cases: read-out: cell proliferation IC50
TEL-TRKA Ba/F3 cells = system: TEL-TRKA Ba/F3 cells
KIF5B-RET Ba/F3 cells = system: KIF5B-RET Ba/F3 cells
MPRIP-TRKA Ba/F3 cells = system: MPRIP-TRKA Ba/F3 cells; design: method as in PMID 24162815

IC50 (KIF5B-RET Ba/F3 cells)	SMILES	further results
–	CN1CCN(c2ccc(C(=O)Nc3n[nH]c4ccc(Cc5cc(F)cc(F)c5)cc34)c(NC3CCOCC3)c2)CC1 [entrectinib]	IC50 (TEL-TRKA Ba/F3 cells): 2.8 nM
9.7 nM and 16.5 nM	CO[C@]1(C(=O)N[C@@H](C)c2ccc(-n3cc(F)cn3)nc2)CC[C@H](c2nc(C)cc(Nc3cc(C)[nH]n3)n2)CC1 [pralsetinib]	–
8 nM	COc1ccc(CN2C3CC2CN(c2ccc(-c4cc(OCC(C)(C)O)cn5ncc(C#N)c45)cn2)C3)cn1 [selpercatinib]	–
–	O=C(Nc1cnn2ccc(N3CCC[C@@H]3c3cc(F)ccc3F)nc12)N1CC[C@H](O)C1 [larotrectinib]	IC50 (MPRIP-TRKA Ba/F3 cells): 8 nM
341 nM	COc1cc2nccc(Oc3ccc(NC(=O)C4(C(=O)Nc5ccc(F)cc5)CC4)cc3)c2cc1OC [cabozantinib]	–
